Consider two compounds from US8163509B2, “Biological markers predictive of anti-cancer response to insulin-like growth factor-1 receptor kinase inhibitors” (The Regents of the University of Colorado, A Body Corporate, priority 2008, dated 2012).

Where two headings read alike, the source gives them in different places.

Common to all, as to test: SRB proliferation assay, 72 h
What all share (format): cell-based, human

The test system of one experiment is HCT116 CRC cell line. To be noted: for IC50: Homo sapiens, HCT-116. The method, then: Cell proliferation was evaluated by SRB following exposure to OSI-906 for 72 hours. Cells were plated at an optimized density in 96-well plates, incubated overnight at 37° C., and then exposed to a serial dilution of OSI-906. After 72 hours incubation, cells were fixed with trichloroacetic acid and an SRB was performed as described in materials and methods.
(§1) Cell Lines and Culture. […] human colon cancer cell lines, were obtained from American Type Culture Collection (Manassas, Va.). Cells were grown in RPMI medium supplemented with 10% fetal bovine serum, 1% non-essential amino acids, 1% penicillin/streptomycin and were maintained at 37° C. in an incubator under an atmosphere containing 5% CO2. The cells were routinely screened for the presence of mycoplasma (MycoAlert, Cambrex Bio Science, Baltimore, Md.) and were exposed to PQIP when they reached approximately 70% confluence.
Multiple clones from the same transfection were pooled and grown under puromycin selection.
(§2) Cytotoxicity and Combination Effects: HT29, HCT116, RKO, and LS513 CRC cell lines were exposed to 0-10 nM SN-38 (7-Ethyl-10-hydroxy-camptothecin), 0-10 μM Oxaliplatin, or 0-50 μM 5-Fluorouracil (5-FU) for 72 hours. HT29, HCT116, RKO, and LS513 CRC cell lines were exposed to PQIP in combination with SN-38, Oxaliplatin or 5-FU. In all combinations, cells were seeded in 96-well flat bottomed plates and left overnight. PQIP and chemotherapy were both added for 72 hours. The results of the combinations were analyzed by the Chou and Talalay method with Calcusyn (Biosoft, Ferguson, Mo.).
(§3) The CRC cell lines were treated with a range of concentrations of PQIP (from 0.05-5 μM) for 72 hours.
To characterize the potential functionality that the selected genes may play in the sensitivity or resistance to PQIP, resistant and sensitive CRC cell lines were stably transfected with specific shRNA, treated with increasing concentrations of PQIP and proliferation assays performed to observe, if when manipulated, these genes alter responsiveness (i.e. the S or R phenotype). […] Both of these transfected cell lines were assayed for proliferation as described above.
Therefore, we investigated the effect of PQIP in combination with standard chemotherapy for CRC. […] Cells were exposed to PQIP and chemotherapy (SN38, oxaliplatin, or 5-Fluorouracil) concurrently for 72 h and combinations were assessed using the SRB assay.
Cell Lines and Culture: Twenty-seven human colon cancer cell lines, were obtained from American Type Culture Collection (Manassas, Va.). The GEO cells were a generous gift from Dr. Fortunato Ciardiello (Cattedra di Oncologia Medica, Dipartimento Medico-Chirurgico di Internistica Clinica e Sperimentale “F Magrassi e A Lanzara,” Seconda Università degli Studi di Napoli, Naples). All cells except GEO were grown in RPMI medium supplemented with 10% fetal bovine serum, 1% non-essential amino acids, 1% penicillin/streptomycin and were maintained at 37° C. in an incubator under an atmosphere containing 5% CO2.

Another experiment has as its system RKO CRC cell line. To be noted: for IC50: Homo sapiens. The method, then: (§4) FIG. 17: Results of cell proliferation assay on the panel of 27 CRC cell lines. Cell proliferation was evaluated by SRB following exposure to OSI-906 for 72 hours. Cells were plated at an optimized density in 96-well plates, incubated overnight at 37° C., and then exposed to a serial dilution of OSI-906. After 72 hours incubation, cells were fixed with trichloroacetic acid and an SRB was performed as described in materials and methods.
as §1, §2, §3
Combination treatment of PQIP with Chemotherapy in Colon Cancer Cell Lines: IGF1R is overexpressed in CRC and has been associated with resistance to chemotherapy. Therefore, we investigated the effect of PQIP in combination with standard chemotherapy for CRC. Four CRC cell lines including, two PQIP sensitive and two PQIP resistant, were chosen for combinations. HT29 and LS513 CRC cell lines were classified as sensitive, with IC50's around 0.3 μmol/L. HCT116 and RKO CRC cell lines were classified as resistant, with IC50>5 μmol/L. Concentrations were chosen based on single agent proliferation curves for each compound. Cells were exposed to PQIP and chemotherapy (SN38, oxaliplatin, or 5-Fluorouracil) concurrently for 72 h and combinations were assessed using the SRB assay. […] It thus appears that biomarkers which predict tumor cell sensitivity will also indicate which cells will respond in a synergistic manner to an IGF-1R kinase inhibitor (e.g. PQIP) and chemotherapy (i.e. SN38, oxaliplatin, or 5-Fluorouracil). […]

The next experiment relates to Colo201 CRC cell line. To be noted: for IC50: Homo sapiens, COLO 201. The method, then: as §4, §1, §3
(§5) Cell Lines and Culture: Twenty-seven human colon cancer cell lines, were obtained from American Type Culture Collection (Manassas, Va.). The GEO cells were a generous gift from Dr. Fortunato Ciardiello (Cattedra di Oncologia Medica, Dipartimento Medico-Chirurgico di Internistica Clinica e Sperimentale “F Magrassi e A Lanzara,” Seconda Università degli Studi di Napoli, Naples). All cells except GEO were grown in RPMI medium supplemented with 10% fetal bovine serum, 1% non-essential amino acids, 1% penicillin/streptomycin and were maintained at 37° C. in an incubator under an atmosphere containing 5% CO2. GEO cells were grown in DMEM/F12 supplemented with 10% fetal bovine serum, 1% non-essential amino acids, 1% penicillin/streptomycin. The cells were routinely screened for the presence of mycoplasma (MycoAlert, Cambrex Bio Science, Baltimore, Md.) and were exposed to OSI-906 when they reached approximately 70% confluence. OSI-906 was provided by OSI Pharmaceuticals, (Boulder, Colo.) and prepared as a 10 mM stock solution in DMSO.
(§6) Assessment of responsiveness of a panel of CRC cell lines to OSI-906. In order to assess CRC cell lines with differential sensitivity to OSI-906, a panel of 27 CRC cell lines were exposed to increasing concentrations of OSI-906 and proliferation was measured using the SRB assay as described previously (Pitts, T M, et al. Mol Cancer Ther 2009; 8(2):342-9). As depicted in FIG. 17 there was a wide range of sensitivity of the CRC cell lines to OSI-906, the majority of the cell lines failing to reach an IC50 up to 5 μmol/L, but a clear distinction could be made between the cell lines that were sensitive and the cell lines that were resistant.

A further experiment relates to SK-CO-1 CRC cell line. To be noted: for IC50: Homo sapiens. The method, then: as §4, §1, §3, §5, §6
The test system of a further experiment is SW620 CRC cell line. To be noted: for IC50: Homo sapiens. On the procedure: as §4, §1, §3, §5, §6
[1] abbreviates: 72 hours, read-out: IC50, proliferation, OSI-906 (SRB).

On to `CN1CCN([C@H]2C[C@@H](c3nc(-c4ccc5ccc(-c6ccccc6)nc5c4)c4c(N)nccn43)C2)CC1` [PQIP, cis-3-[3-(4-Methyl-piperazin-1-yl)-cyclobutyl]1-(2-phenyl-quinolin-7-yl)-imidazo[1,5-a]pyrazin-8-ylamine], for which the “combination index (CI) values, PQIP and chemotherapy” value is on record as 0.6-1.4 in the experiment on HCT116 CRC cell line (HCT116, PQIP with SN38, oxaliplatin or 5-Fluorouracil concurrently 72 h, nearly all combinations, Chou and Talalay); 0.6-1.4 in the experiment on RKO CRC cell line (PQIP with SN38, oxaliplatin or 5-Fluorouracil concurrently 72 h, nearly all combinations, Chou and Talalay). In addition, the “shift in sensitivity to PQIP after shRNA knockdown” value is on record as “left shift in sensitivity” in the experiment with HCT116 CRC cell line (HCT116 transfected with MT2A shRNA vs parental or scramble shRNA control) and “no left shift in sensitivity” in the experiment with HCT116 CRC cell line (HCT116 transfected with caldesmon shRNA vs parental or scramble shRNA control). In addition, the IC50 in the experiment with HCT116 CRC cell line (HCT116, 72 hours, 0.05-5 μM, read-out: IC50, growth inhibition by PQIP (SRB)) is above 5 µM; with RKO CRC cell line (72 hours, 0.05-5 μM, read-out: IC50, growth inhibition by PQIP (SRB)), above 5 µM. The “sensitivity to growth inhibition by PQIP (SRB)” value is reported as “intermediate sensitivity” with Colo201 CRC cell line (Colo201, 72 hours, 0.05-5 μM); “intermediate sensitivity” in the experiment on SK-CO-1 CRC cell line (72 hours, 0.05-5 μM); “intermediate sensitivity” with SW620 CRC cell line (72 hours, 0.05-5 μM).

With `C[C@]1(O)C[C@@H](c2nc(-c3ccc4ccc(-c5ccccc5)nc4c3)c3c(N)nccn32)C1` [OSI-906, cis-3-[8-amino-1-(2-phenyl-quinolin-7-yl)-imidazo[1,5-a]pyrazin-3-yl]-1-methyl-cyclobutanol], the IC50 is above 5 µM with HCT116 CRC cell line (HCT116, 72 hours, read-out: IC50, proliferation, OSI-906 (SRB)); above 5 µM in the experiment on HCT116 CRC cell line (HCT116, read-out: S/I/R to OSI-906); 5 µM with HCT116 CRC cell line (HCT116 stably transfected with MT2A shRNA, read-out: IC50, proliferation, OSI-906 (SRB) after MT2A shRNA knockdown); above 5 µM in the experiment on RKO CRC cell line (setting [1]); above 5 µM in the experiment with RKO CRC cell line (read-out: S/I/R to OSI-906); above 5 µM in the experiment with Colo201 CRC cell line (CoLo201, read-out: S/I/R to OSI-906). For the same compound, the IC50 with Colo201 CRC cell line (Colo201, 72 hours, read-out: IC50, proliferation, OSI-906 (SRB)) was above 5 µM; in the experiment on SK-CO-1 CRC cell line (setting [1]), above 5 µM; in the experiment on SK-CO-1 CRC cell line (read-out: S/I/R to OSI-906), above 5 µM; with SW620 CRC cell line (SW-620, 72 hours, read-out: IC50, proliferation, OSI-906 (SRB)), above 5 µM; in the experiment with SW620 CRC cell line (SW-620, read-out: S/I/R to OSI-906) it was above 5 µM.
